In ChEMBL document CHEMBL3870348, “Discovery of a new isomannide-based peptidomimetic synthetized by Ugi multicomponent reaction as human tissue kallikrein 1 inhibitor” (Bioorg Med Chem Lett, 2017):
Calls of active or inactive are those of the source. The rule behind the calls is not given here.

Legend:
Kallikrein-7 [1] = molecular target: T1, Kallikrein-7 (Homo sapiens, UniProt P49862); test: Inhibition of recombinant human KLK7 expressed in baculovirus/insect cell expression system at 100 uM using Abz-KLYSSKQ-EDDnp peptide as substrate preincubated for 5 mins followed by substrate addition by FRET assay
Target sequence in this assay (P49862 30-253 limits assumed): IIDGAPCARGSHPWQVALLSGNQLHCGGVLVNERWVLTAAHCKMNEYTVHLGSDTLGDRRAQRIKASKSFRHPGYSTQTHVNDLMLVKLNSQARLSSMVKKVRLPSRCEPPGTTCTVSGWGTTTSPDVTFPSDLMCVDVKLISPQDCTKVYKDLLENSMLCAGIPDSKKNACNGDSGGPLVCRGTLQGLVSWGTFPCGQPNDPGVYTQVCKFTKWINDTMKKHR

Kallikrein-7 [2] = molecular target: T1, Kallikrein-7; test: Inhibition of recombinant human KLK7 expressed in baculovirus/insect cell expression system using Abz-KLYSSKQ-EDDnp peptide as substrate preincubated for 5 mins followed by substrate addition by FRET assay
Target sequence in this assay (P49862 whole entry): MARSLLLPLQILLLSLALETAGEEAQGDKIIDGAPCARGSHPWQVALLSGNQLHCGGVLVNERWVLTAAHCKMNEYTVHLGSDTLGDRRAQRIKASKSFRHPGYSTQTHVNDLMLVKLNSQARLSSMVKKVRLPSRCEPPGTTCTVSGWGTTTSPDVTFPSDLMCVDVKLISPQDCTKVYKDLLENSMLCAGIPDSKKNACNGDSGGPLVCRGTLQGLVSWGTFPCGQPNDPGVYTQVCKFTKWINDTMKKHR

Kallikrein-1 [3] = molecular target: T2, Kallikrein-1 (Homo sapiens, UniProt P06870); test: Inhibition of recombinant human KLK1 expressed in baculovirus/insect cell expression system at 100 uM using Abz-KLRSSKQ-EDDnp peptide as substrate preincubated for 5 mins followed by substrate addition by FRET assay
Target sequence in this assay (P06870 25-262 limits assumed): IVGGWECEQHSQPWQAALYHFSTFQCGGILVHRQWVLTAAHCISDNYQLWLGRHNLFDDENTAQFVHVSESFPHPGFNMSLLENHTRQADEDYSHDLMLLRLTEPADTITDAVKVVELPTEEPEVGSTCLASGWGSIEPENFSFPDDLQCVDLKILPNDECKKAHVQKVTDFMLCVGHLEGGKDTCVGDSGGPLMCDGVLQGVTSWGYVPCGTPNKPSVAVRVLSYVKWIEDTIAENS

Kallikrein-1 [4] = molecular target: T2, Kallikrein-1; test: Inhibition of recombinant human KLK1 expressed in baculovirus/insect cell expression system using Abz-KLRSSKQ-EDDnp peptide as substrate preincubated for 5 mins followed by substrate addition by FRET assay
Target sequence in this assay (P06870 whole entry): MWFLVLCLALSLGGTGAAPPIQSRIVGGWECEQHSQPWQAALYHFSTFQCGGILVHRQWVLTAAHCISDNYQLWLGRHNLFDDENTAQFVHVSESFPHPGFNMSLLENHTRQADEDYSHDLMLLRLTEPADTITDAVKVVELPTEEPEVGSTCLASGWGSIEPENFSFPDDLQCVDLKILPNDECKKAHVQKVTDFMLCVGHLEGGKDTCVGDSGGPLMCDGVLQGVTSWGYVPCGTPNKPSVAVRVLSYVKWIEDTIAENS

Kallikrein-1 [5] = molecular target: T2, Kallikrein-1; test: Competitive inhibition of recombinant human KLK1 expressed in baculovirus/insect cell expression system using Abz-KLRSSKQ-EDDnp peptide as substrate by Dixon plot analysis
Target sequence in this assay (P06870 whole entry): as above

Kallikrein-1 [6] = molecular target: T2, Kallikrein-1; test: Reversible competitive inhibition of recombinant human KLK1 expressed in baculovirus/insect cell expression system using Abz-KLRSSKQ-EDDnp peptide as substrate at 2 to 8 uM by Lineweaver-Burk plot analysis
Target sequence in this assay (P06870 25-262 limits assumed): as the sequence (P06870 25-262 limits assumed) above

SMILES | inhibition (Kallikrein-7 [1]) | IC50 (Kallikrein-7 [2]) [µM] | inhibition (Kallikrein-1 [3]) | IC50 (Kallikrein-1 [4]) [µM] | Ki (Kallikrein-1 [5]) [µM] | inhibition (Kallikrein-1 [6])
CC(C)(C(=O)NC1CCCCC1)N(C(=O)Cc1ccc(O)cc1)[C@H]1CO[C@H]2[C@@H]1OC[C@@H]2N(C(=O)Cc1ccc(O)cc1)C(C)(C)C(=O)NC1CCCCC1 | Active | 133 | Active | 12.6 | – | –
CC(C)(C(=O)NC1CCCCC1)N(C(=O)c1ccccc1)[C@H]1CO[C@H]2[C@@H]1OC[C@H]2OCc1ccccc1 | Active | 572 | Active | 400 | – | –

More lines, now with the values ahead:

inhibition (Kallikrein-7 [1]) | IC50 (Kallikrein-7 [2]) [µM] | inhibition (Kallikrein-1 [3]) | IC50 (Kallikrein-1 [4]) [µM] | Ki (Kallikrein-1 [5]) [µM] | inhibition (Kallikrein-1 [6]) | SMILES
Active | 185 | Active | 221 | – | – | CC(C)(C(=O)NC1CCCCC1)N(C(=O)Cc1ccc(F)cc1)[C@H]1CO[C@H]2[C@@H]1OC[C@H]2OCc1ccccc1
Active | 272 | Active | 125 | – | – | COc1ccc(CC(=O)N([C@H]2CO[C@H]3[C@@H]2OC[C@H]3OCc2ccccc2)C(C)(C)C(=O)NC2CCCCC2)cc1
Active | 249 | Active | 4 | 3.1 | Active | CC(C)(C(=O)NC1CCCCC1)N(C(=O)Cc1ccc(O)cc1)[C@H]1CO[C@H]2[C@@H]1OC[C@H]2OCc1ccccc1
